US7910741B2, “Nitrogen-containing heterocyclic derivatives and drugs containing the same as the active ingredient” (Ono Pharmaceutical Co., Ltd., priority 2003, dated 2011)
Where a name gives a salt, the structure may show the parent alone.

Tests used:
[1] = target: T1, human CCR5 (Homo sapiens, UniProt P51681); experiment: Migration test of human CCR5 expressing cell (hCCR5-Ba/F3 cell) against RANTES; assay type: cell-based
T1 construct: expressed in transfected cells; host or cells: Ba/F3
Description: Migration test of human CCR5 expressing cell (hCCR5-Ba/F3 cell):
The isolation was carried out according to the method of the isolation of human CCR5 gene as described in the above Example 1.
Ba/F3 cells were statically cultured by using RMMI-1640 medium (Gibco BRL) containing antibiotics (Antibiotic-Antimycotic) (final concentration: penicillin G sodium (100 U/mL), streptomycin sulfate (100 μg/mL), amphotericin B (0.25 μg/mL)) (Gibco BRL), fetal bovine serum (FBS) (10%), 2-mercaptoethanol (55 μM) and mouse interleukin-3 (IL-3) (5 ng/mL) (Pepro Tech, Inc) in a carbon dioxide incubator (temperature: 37° C., CO2 concentration: 5%, humidity: 95%). […]
The human CCR5 expression level in the clone obtained by the method described in the above (1-C) was detected with FAC Sort (trade name, Becton, Dickinson) by detecting the cells with a fluorescence isothiocyanate (FITC)-labeled anti-human CCR5 antibody (BD Pharmingen) and analyzed. […]
Influence of a test compound on the migration ability of the human CCR5 expressing Ba/F3 cell against RANTES, MIP-1α or […] was examined. […] The cells on the microplate were suspended in 100 μl of a phosphate buffer (PBS), and 1/10 portion thereof was further diluted with 90 μl of PBS, moved on a white plate for fluorescence assay, and used as an assay sample for migrated cell numbers (final: 100 μl/well). […]

[2] = target: T1, human CCR5; experiment: Inhibition test on the binding of RANTES to CCR5 (RANTES-induced transient increase of Ca ion in CCR5/CHO cells); assay type: cell-based; settings: inhibition of RANTES (10 nM)-induced Ca2+ transient increase; CCR5/CHO cell
Description: Inhibition test on the binding of RANTES to CCR5:
(1) Isolation of Human CCR5 Gene
Human placental cDNA was prepared using Marathon cDNA amplification kit (Clontech). PCR primers hCCR5Xbal-F1:
Using the human placental cDNA as the template and using Ex Taq (Takara), PCR reaction (2 minutes at 95° C.→(30 seconds at 95° C., 45 seconds at 60° C., 1 minute at 72° C.)×35 times) was carried out. The thus amplified PCR product was subjected to a 1% agarose gel electrophoresis, purified using QIAquick Gel Extraction Kit (QUIAGEN) and then digested with a restriction enzyme XbaI. The digested fragments were ligated to an expression vector pEF-BOS-bsr using DNA Ligation Kit Ver. 2 (Takara) and transformed into Escherichia coli DH5a. […]
The thus established human CCR5 stably over-expressing CHO cell (CCR5/CHO cell) was suspended in Ham's F-12 medium containing FBS (10%) and seeded at a density of […] into a 96 well plate. […] Transient increase in the intracellular Ca^2+ concentration induced by the human RANTES was measured using a Ca^2+ detector for 96 well use (Hamamatsu Photonics), and inhibition ratio (%) of the test compound was calculated by the following calculation formula. Inhibition ratio=(Ec−Ea)/Ec×100 • Ec: measured value of Ca^2+ transient increase by RANTES • Ea: measured value of Ca^2+ transient increase by RANTES when a test compound was added.

T1 sequence (P51681 whole entry): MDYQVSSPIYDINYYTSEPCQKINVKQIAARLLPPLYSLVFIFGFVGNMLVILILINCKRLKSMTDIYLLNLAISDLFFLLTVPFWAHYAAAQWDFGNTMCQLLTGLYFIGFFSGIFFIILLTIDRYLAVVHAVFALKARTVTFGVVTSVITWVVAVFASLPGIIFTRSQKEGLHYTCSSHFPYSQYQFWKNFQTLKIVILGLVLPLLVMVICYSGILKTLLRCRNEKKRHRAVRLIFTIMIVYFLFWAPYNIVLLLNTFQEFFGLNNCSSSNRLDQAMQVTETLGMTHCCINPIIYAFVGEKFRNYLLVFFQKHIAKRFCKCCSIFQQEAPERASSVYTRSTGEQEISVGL

cell migration inhibition ratio ([1]; concentration 10 μM) [%] | cell migration inhibition ratio ([1]; concentration 30 μM) [%] | IC50 [2] [nM] | SMILES
42 | 77 |  | CCCCN(C(=O)Nc1ccc(F)cc1F)C1CCN(Cc2ccc(Oc3ccc(NS(C)(=O)=O)cc3)cc2)CC1.Cl [Example 23(126), N-[4-(4-{[4-(butyl{[(2,4-difluorophenyl)amino]carbonyl}amino)-1-piperidinyl]methyl}phenoxy)phenyl]methanesulfonamide hydrochloride]
 |  | 77 | CCCCN(C(=O)C1CCCCC1)C1CCN(Cc2ccc(Oc3ccc(NS(C)(=O)=O)cc3)cc2)CC1 [Example 5(2), N-butyl-N-[1-(4-{4-[(methylsulfonyl)amino]phenoxy}benzyl)piperidin-4-yl]cyclohexanecarboxamide hydrochloride]
